Data as given in patent publication US4017485A, “7-Methoxycephalosporin derivatives” (Takeda Chemical Industries, Ltd., priority 1973, dated 1977).
Where a name gives a salt, the structure may show the parent alone.

Key:
[1] = tested on: Escherichia coli (clinical isolate**); experiment: Antimicrobial spectrum, minimal inhibitory concentration; assay type: cell-based; settings: clinical isolate resistant to sulfonamide, streptomycin and sulbenicillin, Tripticase Soy Agar (BBL), pH 6.5, 37° C, read-out: minimal inhibitory concentrations
Description: (§1) Based on the above physical and chemical properties as well as the results of other analyses, the chemical structure of this new antibiotic C-2801-X was determined as follows. [drawing 2] 11. Antimicrobial spectrum: Medium: Tripticase Soy Agar (BBL) (manufactured by Becton Dickenson Co., U.S.A.), pH 6.5, minimal inhibitory concentrations mcg/ml., temperature 37° C
**The strain is resistant to sulfonamide, streptomycin and sulbenicillin.

mice = experiment: Acute toxicity test in mice; assay type: in vivo; settings: 400 mg. per kilogram of body weight, intravenously
Description: In an acute toxicity test in mice, there occurred no death when 400 mg. of Antibiotic C-2801-X monosodium salt per kilogram of body weight was administered intravenously.

acidity-alkalinity = assay type: physicochemical
[2] = tested on: Escherichia coli (clinical isolate*); experiment: Antimicrobial spectrum, minimal inhibitory concentration; assay type: cell-based; settings: clinical isolate resistant to tetracycline, streptomycin, kanamycin, lividomycin, aminobenzylpenicillin and sulbenicillin, Tripticase Soy Agar (BBL), pH 6.5, 37° C, read-out: minimal inhibitory concentrations
Description: as §1
*The strain is resistant to tetracycline, streptomycin, kanamycin,
lividomycin, aminobenzylpenicillin and sulbenicillin.

Solubility = assay type: physicochemical
[3] = tested on: Bacillus subtilis PCI 219; experiment: Antimicrobial spectrum, minimal inhibitory concentration; assay type: cell-based; settings: PCI219, Tripticase Soy Agar (BBL), pH 6.5, 37° C, read-out: minimal inhibitory concentrations
Description: as §1

[4] = tested on: Staphylococcus aureus 209 P (chloramphenicol, streptomycin, tetracycline and erythromycin-resistant); experiment: as above; assay type: cell-based; settings: pH 6.5, read-out: minimal inhibitory concentrations
Description: as §1

[5] = tested on: Pseudomonas aeruginosa NCTC-10490; experiment: as above; assay type: cell-based; settings: NCTC10490, Tripticase Soy Agar (BBL), pH 6.5, 37° C, read-out: minimal inhibitory concentrations
Description: as §1

Escherichia coli NIHJ = experiment: as above; assay type: cell-based; settings: Tripticase Soy Agar (BBL), pH 6.5, 37° C, read-out: minimal inhibitory concentrations
Description: as §1

[6] = tested on: Staphylococcus aureus 209 P; experiment: as above; assay type: cell-based; settings: Tripticase Soy Agar (BBL), pH 6.5, 37° C, read-out: minimal inhibitory concentrations
Description: as §1

[7] = tested on: Escherichia coli (clinical isolate, antibiotic-susceptible strain); experiment: as above; assay type: cell-based; settings: Tripticase Soy Agar (BBL), pH 6.5, 37° C, read-out: minimal inhibitory concentrations
Description: as §1

[8] = tested on: Straphylococcus aureus No.87; experiment: as above; assay type: cell-based; settings: Tripticase Soy Agar (BBL), pH 6.5, 37° C, read-out: minimal inhibitory concentrations
Description: as §1

[9] = tested on: Pseudomonas aeruginosa IFO-3080; experiment: as above; assay type: cell-based; settings: IFO3080, Tripticase Soy Agar (BBL), pH 6.5, 37° C, read-out: minimal inhibitory concentrations
Description: as §1
(§2) (The IFO-numbers given above are the accession numbers at the Institute
(§3) for Fermentation, Osaka, Japan).

[10] = tested on: Salmonella enteritidis IFO-3313; experiment: as above; assay type: cell-based; settings: Salmonella enterica, Tripticase Soy Agar (BBL), pH 6.5, 37° C, read-out: minimal inhibitory concentrations
Description: as §1, §2, §3

[11] = tested on: Bacillus pumilus IFO-3813; experiment: as above; assay type: cell-based; settings: IFO3813, Tripticase Soy Agar (BBL), pH 6.5, 37° C, read-out: minimal inhibitory concentrations
Description: as §1, §2, §3

[12] = tested on: Proteus mirabilis IFO-3849; experiment: as above; assay type: cell-based; settings: IFO3849, Tripticase Soy Agar (BBL), pH 6.5, 37° C, read-out: minimal inhibitory concentrations
Description: as §1, §2, §3

[13] = tested on: Alcaligenes faecalis IFO-13111; experiment: as above; assay type: cell-based; settings: IFO13111, Tripticase Soy Agar (BBL), pH 6.5, 37° C, read-out: minimal inhibitory concentrations
Description: as §1, §2, §3

[14] = tested on: Proteus morganii IFO-3848; experiment: as above; assay type: cell-based; settings: Morganella morganii, IFO3848, Tripticase Soy Agar (BBL), pH 6.5, 37° C, read-out: minimal inhibitory concentrations
Description: as §1, §2, §3

[15] = tested on: Klebsiella pneumoniae IFO-3512; experiment: as above; assay type: cell-based; settings: IFO3512, Tripticase Soy Agar (BBL), pH 6.5, 37° C, read-out: minimal inhibitory concentrations
Description: as §1, §2, §3

[16] = tested on: Salmonella typhimurium IFO-12529; experiment: as above; assay type: cell-based; settings: Salmonella enterica, Tripticase Soy Agar (BBL), pH 6.5, 37° C, read-out: minimal inhibitory concentrations
Description: as §1, §2, §3

[17] = tested on: Aerobacter cloacae IFO-12009; experiment: as above; assay type: cell-based; settings: Enterobacter cloacae, IFO12009, Tripticase Soy Agar (BBL), pH 6.5, 37° C, read-out: minimal inhibitory concentrations
Description: as §1, §2, §3

[18] = tested on: Proteus vulgaris IFO-3988; experiment: as above; assay type: cell-based; settings: IFO3988, Tripticase Soy Agar (BBL), pH 6.5, 37° C, read-out: minimal inhibitory concentrations
Description: as §1, §2, §3

[19] = tested on: Staphylococcus aureaus, Bacillus subtilis, Escherichia coli, Proteus vulgaris, Salmonella typhimurium, aerobic bacteria; experiment: Inhibition of bacterial growth (summary statement); assay type: cell-based; settings: antibiotic C-2801-X and its salts
[20] = Stability under strongly acidic and under alkaline conditions; assay type: physicochemical

COC(=Cc1ccc(O)c(O)c1)C(=O)OCC1=C(C(=O)O)N2C(=O)C(NC(=O)CCCC(N)C(=O)O)(OC)C2SC1 (stereo not shown) [Antibiotic C-2801-X monosodium salt]
MIC [1]: 25 µg/mL | death in acute toxicity test (mice): no death | acidity-alkalinity (acidity-alkalinity): Amphoteric | MIC [2]: 25 µg/mL | Solubility (Solubility; in chloroform): Insoluble | Solubility (Solubility; in ethanol): Soluble | Solubility (Solubility; in ether): Insoluble | Solubility (Solubility; in ethyl acetate): Insoluble | Solubility (Solubility; in methanol): Soluble | Solubility (Solubility; in water): Soluble | MIC [3]: 12.5 µg/mL | MIC [4]: 50 µg/mL | MIC [5]: > 100 µg/mL | MIC (Escherichia coli NIHJ): 50 µg/mL | MIC [6]: 50 µg/mL | MIC [7]: 25 µg/mL | MIC [8]: 50 µg/mL | MIC [9]: > 100 µg/mL | MIC [10]: 6.25 µg/mL | MIC [11]: 50 µg/mL | MIC [12]: 3.13 µg/mL | MIC [13]: 12.5 µg/mL | MIC [14]: 25 µg/mL | MIC [15]: 6.25 µg/mL | MIC [16]: 6.25 µg/mL | MIC [17]: 25 µg/mL | MIC [18]: 12.5 µg/mL

COC(=Cc1ccc(O)c(O)c1)C(=O)OCC1=C(C(=O)O)N2C(=O)C(NC(=O)CCCC(N)C(=O)O)(OC)C2SC1 (stereo not shown) [Antibiotic C-2801-X]
acidity-alkalinity (acidity-alkalinity): amphoteric | inhibition of growth of bacteria [19]: inhibit the growth | Solubility (Solubility; in water): water-soluble | stability [20]: unstable
